# In patent publication US20190256929A1, “PHARMACODYNAMIC BIOMARKERS FOR PERSONALIZED CANCER CARE USING EPIGENETIC MODIFYING AGENTS” (ORYZON GENOMICS, S.A., priority 2016, published 2019):
# Key:
# [1] = test system: patient derived xenograft (PDX) small cell lung cancer models, ex vivo cultures; test: qRT-PCR of PD markers Notch1 and ASCL1 in ex vivo cultures of SCLC patient derived xenograft (PDX) models; assay type: cell-based, human; conditions: 1 nM, 120 hours
# Experimental: To confirm the results obtained for the panel for small cell lung cancer cell lines, changes in PD markers Notch1 and ASCL1 were evaluated in a panel of patient derived xenograft (PDX) small cell lung cancer models. The initiation and characterization of PDX models LX48, LX108, LX110, LX33 have been described previously (Hann, C. L., et al. 2008, Cancer Research. 68, 2321-2328; Poirier et al. (2013). J. Natl. Cancer Inst. 105, 1059-1065; Leong et al. PLoS One. 2014; 9:e106862). PDX models, FHSC04 and FHSC14 were generated from blood samples obtained from patients with extensive-stage SCLC, following the methodology described by the Dive lab (Hodgkinson et al. 2014 Nat Med August 20(8), 897-903). Ex vivo cultures were treated with 1 nM (trans)-N1-((1R,2S)-2-Phenylcyclopropyl)cyclohexane-1,4-diamine in 96 well plates (10,000 cells/well) for 120 hours. RNA was extracted in TRIzol (Invitrogen) and isolated according to the manufacturer's protocol. cDNA was generated using the iScript synthesis kit (Bio-Rad) according to the manufacturer's protocol. qPCR experiments were run on a Biorad qPCR instrument (CFX384). Data were normalized to GAPDH. FIG. 12 contains the results of the qRT-PCR using the following primers.
# SCLC 510A xenografts = test: RNA-seq PD gene change in H510A SCLC xenograft mouse model; assay type: in vivo, mice; conditions: for ASCL1 Log2FC / GRP Log2FC / NOTCH1 Log2FC: vs vehicle
# Experimental: Female athymic nude mice, approximately 7-8-week old animals, were injected with 5 million H510A cells per 50 μL PBS and 50 μL Matrigel (BD Bioscience) into the right flank of each animal. After tumor growth reached 200-300 mm3, animals were distributed in three homogeneous groups with similar mean tumor volume and SD. Animals were treated with vehicle, 20 μg/Kg and 40 μg/Kg of (trans)-N1-((1R,2S)-2-phenylcyclopropyl)cyclohexane-1,4-diamine for 3 weeks according to the 5 days on/2 days off schedule.
# Mice were sacrificed at day 35 at 1, 6 and 24 hours post last injection. Blood was extracted in Microvette® (Sarstedt) tubes, centrifuged on a bench-top centrifuge at 2000 rpm for 15 min at 4 C. Supernatant was stored at −80° C. Tumors were removed and divided in 3 parts: ⅓ was immersed in RNA-Later and snap frozen for subsequent analysis. Frozen material was stored at −80° C. before shipment.
# Whole transcriptomic RNA sequencing procedure is identical to that as described in Example 1. Raw RNASeq reads were aligned to the mouse and the human transcriptome using GSNAP and were then analyzed. Reads mapped to both organisms were filtered out and only reads that were uniquely aligned to human or mouse were used to profile the respective genes. The log 2 fold change of three candidate PD markers between (trans)-N1-((1R,2S)-2-phenylcyclopropyl)cyclohexane-1,4-diamine treated and vehicle treated samples were calculated using DESeq2 package (Love et al.).
# [2] = 20 μg/kg, 1 h post last injection
# [3] = 20 μg/kg, 6 h post last injection
# [4] = 20 μg/kg, 24 h post last injection
# [5] = 40 μg/kg, 1 h post last injection
# [6] = 40 μg/kg, 6 h post last injection
# [7] = 40 μg/kg, 24 h post last injection
smiles,measurement,setting,value
"N[C@H]1CC[C@H](N[C@@H]2C[C@H]2c2ccccc2)CC1 [RG6016, (trans)-N1-((1R,2S)-2-phenylcyclopropyl)cyclohexane-1,4-diamine]",Regulation of ASCL1 (FIG. 12),[1],down
same,Regulation of NOTCH1 (FIG. 12),[1],up
same,ASCL1 Log2FC,SCLC 510A xenografts; [2],−0.525
same,GRP Log2FC,SCLC 510A xenografts; [2],−1.607
same,NOTCH1 Log2FC,SCLC 510A xenografts; [2],1.947
same,ASCL1 Log2FC,SCLC 510A xenografts; [3],−0.545
same,GRP Log2FC,SCLC 510A xenografts; [3],−0.794
same,NOTCH1 Log2FC,SCLC 510A xenografts; [3],1.388
same,ASCL1 Log2FC,SCLC 510A xenografts; [4],−0.472
same,GRP Log2FC,SCLC 510A xenografts; [4],−1.205
same,NOTCH1 Log2FC,SCLC 510A xenografts; [4],1.679
same,ASCL1 Log2FC,SCLC 510A xenografts; [5],−0.783
same,GRP Log2FC,SCLC 510A xenografts; [5],−1.75
same,NOTCH1 Log2FC,SCLC 510A xenografts; [5],2.727
same,ASCL1 Log2FC,SCLC 510A xenografts; [6],−0.825
same,GRP Log2FC,SCLC 510A xenografts; [6],−1.421
same,NOTCH1 Log2FC,SCLC 510A xenografts; [6],2.321
same,ASCL1 Log2FC,SCLC 510A xenografts; [7],−1.286
same,GRP Log2FC,SCLC 510A xenografts; [7],−2.742
same,NOTCH1 Log2FC,SCLC 510A xenografts; [7],3.423
same,ASCL1 transcript down regulation (FIG. 9),SCLC 510A xenografts; SCLC 510A xenografts,dose and time dependent
same,GRP transcript down regulation (FIG. 10),SCLC 510A xenografts; SCLC 510A xenografts,dose and time dependent
same,NOTCH1 transcript up regulation (FIG. 11),SCLC 510A xenografts; SCLC 510A xenografts,dose and time dependent
